Laboratory results as given in US20200170983A1, “METHODS FOR THE TREATMENT OF BLADDER CANCER” (Cipla Limited, priority 2015, published 2020).
Like-named read-outs stand apart in the source and are kept apart here.

Experiments:
5637 = experiment: In vitro 2D assay (CellTiter-Blue cell viability); assay type: cell-based, human
Source text: (§1) In the present study the human bladder cancer cell lines BXF 1036, BXF 1218, BXF 1352, 5637 and T24 were used. BXF 1036, BXF 1218 and BXF 1352 were established at Oncotest from the corresponding human patient derived xenograft. T24 was purchased from ATCC (Rockville, Md., USA) and 5637 was from DSMZ (Braunschweig, Germany). Authenticity of cell lines was confirmed at the DSMZ by STR (short tandem repeat) analysis, a PCR based DNA-fingerprinting methodology. Cell lines were routinely passaged once or twice weekly and maintained in culture for up to 20 passages. All cells were grown at 37° C. in a humidified atmosphere with 5% CO2 in RPMI 1640 medium (25 mM HEPES, with L-glutamine, #FG1385, Biochrom, Berlin, Germany) supplemented with 10% (v/v) fetal calf serum (Sigma, Taufkirchen, Germany) and 0.1 mg/mL gentamicin (Life Technologies, Karlsruhe, Germany).
(§2) The CellTiter-Blue® Cell Viability Assay (#G8081, Promega) was used according to manufacturer's instructions. Briefly, cells were harvested from exponential phase cultures, […] on the cell line's growth rate. After a 24 h recovery period to allow the cells to resume exponential growth, test compounds were added. Compounds were applied at 9 concentrations in half-log increments in duplicate and treatment continued for 96 h. After 96 h treatment of cells, 20 μL/well CellTiter-Blue® reagent was added.
(§3) Following an incubation period of up to four hours, fluorescence (FU) was measured by using the Enspire Multimode Plate Reader (excitation λ=531 nm, emission λ=615 nm). For calculations, the mean values of duplicate/sixfold (untreated control) data were used. Sigmoidal concentration-response curves were fitted to the data points (T/C values) obtained for each cell line using 4 parameter non-linear curve fit (Oncotest Warehouse Software).

BXF 1036 [1] = experiment: In vitro 2D assay (CellTiter-Blue cell viability); assay type: cell-based, human; settings: BXF 1036, 96 h treatment
Source text: as §1, §2, §3

BXF 1218 [2] = experiment: In vitro 2D assay (CellTiter-Blue cell viability); assay type: cell-based, human; settings: BXF 1218, 96 h treatment
Source text: as §1, §2, §3

BXF 1352 [3] = experiment: In vitro 2D assay (CellTiter-Blue cell viability); assay type: cell-based, human; settings: BXF 1352, 96 h treatment
Source text: as §1, §2, §3

T24 = experiment: In vitro 2D assay (CellTiter-Blue cell viability); assay type: cell-based, human
Source text: as §1, §2, §3

[4] = test system: five selected human bladder cancer cell lines; experiment: In vitro 2D assay, mean over the panel; assay type: cell-based
Source text: as §1, §2, §3

BXF 1036 [5] = experiment: In vitro 3D clonogenic assay (colony formation in semi-solid medium); assay type: cell-based, human; settings: for IC50: BXF 1036, absolute IC50
Experimental: (§4) The clonogenic assay was carried out in a 96 well plate format using ultra low attachment plates. For each test, cells were prepared as described above and assay plates were prepared as follows: each test well contained a layer of semi-solid medium with tumor cells (50 μL), and a second layer of medium supernatant with or without test compound (100 μL). The cell layer consisted of 2·103 to 3·103 tumor cells per well, which were seeded in 50 μL/well cell culture medium (IMDM, supplemented with 20% (v/v) fetal calf serum, 0.01% (w/v) gentamicin, and 0.4% (w/v) agar. After 24 hours the test compounds were added after serial dilution in cell culture medium, and left on the cells for the duration of the experiment (continuous exposure, 100 μl drug overlay). Every plate included six untreated control wells and drug-treated groups in duplicate at 9 concentrations. Cultures were incubated at 37° C. and 7.5% CO2 in a humidified atmosphere for 8 to 13 days and monitored closely for colony growth using an inverted microscope. Within this period, ex vivo tumor growth led to the formation of colonies with a diameter of >50 μm. At the time of maximum colony formation, counts were performed with an automatic image analysis system (Bioreader 5000-Wa Biosys GmbH). 48 hours prior to evaluation, vital colonies were stained with a sterile aqueous solution of 2-(4-iodophenyl)-3-(4-nitrophenyl)-5-phenyltetrazolium chloride (1 mg/ml, 100 μl/well).

BXF 1218 [6] = experiment: as above; assay type: cell-based, human; settings: for IC50: BXF 1218, absolute IC50
Experimental: as §4

BXF 1352 [7] = experiment: as above; assay type: cell-based, human; settings: BXF 1352, absolute IC50
Experimental: as §4

BXF 5637 = experiment: as above; assay type: cell-based, human; settings: BXF 5637, absolute IC50
Experimental: as §4

BXF T24 [8] = experiment: as above; assay type: cell-based, human; settings: for IC50: BXF T24, absolute IC50
Experimental: as §4

[9] = test system: 5 human tumor cell lines of bladder cancer; experiment: In vitro 3D clonogenic assay, mean over the panel; assay type: cell-based; settings: for IC50: colony formation; for IC50, Geo. Mean: geometric mean of five cell lines
Experimental: as §4

BXF 1218L = experiment: Combination study, 3D clonogenic assay, 5x5 matrix, Bliss independence; assay type: cell-based, human; settings: monotherapy controls of the 5x5 combination matrix, read-out: IC50, colony formation, single agent
Experimental: The objective of this study was to assess anti-tumor efficacy of adapalene in combination with cisplatin in a 5×5 matrix combination format against various bladder cancer cell lines. Efficacy of the combinations was assessed by measuring anchorage-independent growth and in vitro tumor colony formation using a 3D clonogenic assay in cell lines BXF […], BXF […], and BXF T24. […] The compounds were tested in bladder cell lines, namely BXF […], BXF […], and BXF T24. Cells lines of BXF […] and BXF […] were established at Oncotest in Freiburg from the corresponding patient-derived xenografts. BXF T24 cells were obtained from American Type Culture Collection (Rockville, Md., USA). Authenticity of cell lines was confirmed at the DSMZ by STR analysis. Cell lines were routinely passaged once or twice weekly and maintained in culture for up to 20 passages. Cells were grown at 37° C. in a humidified atmosphere with 5% CO2 in RPMI 1640 medium (25 mM HEPES, with L-glutamine, Biochrom) supplemented with 10% (v/v) fetal calf serum and 0.1 mg/mL gentamicin. The percentage of viable cells was determined in a Neubauer-hemocytometer using trypan blue exclusion. […] Cultures were incubated at 37° C. and 7.5% CO2 in a humidified atmosphere for 8 to 13 days and monitored closely for colony growth using an inverted microscope. […]

BXF 1036L = experiment: as above; assay type: cell-based, human; settings: monotherapy controls of the 5x5 combination matrix, read-out: IC50, colony formation, single agent
Experimental: (§5) The objective of this study was to assess anti-tumor efficacy of adapalene in combination with cisplatin in a 5×5 matrix combination format against various bladder cancer cell lines. Efficacy of the combinations was assessed by measuring anchorage-independent growth and in vitro tumor colony formation using a 3D clonogenic assay in cell lines BXF 1036L, BXF 1218L, and BXF T24.
(§6) The compounds were tested in bladder cell lines, namely BXF 1036L, BXF 1218L, and BXF T24. Cells lines of BXF 1036L and BXF 1218L were established at Oncotest in Freiburg from the corresponding patient-derived xenografts. BXF T24 cells were obtained from American Type Culture Collection (Rockville, Md., USA). Authenticity of cell lines was confirmed at the DSMZ by STR analysis.
(§7) Cell lines were routinely passaged once or twice weekly and maintained in culture for up to 20 passages. Cells were grown at 37° C. in a humidified atmosphere with 5% CO2 in RPMI 1640 medium (25 mM HEPES, with L-glutamine, Biochrom) supplemented with 10% (v/v) fetal calf serum and 0.1 mg/mL gentamicin. The percentage of viable cells was determined in a Neubauer-hemocytometer using trypan blue exclusion.
(§8) The clonogenic assay was carried out in a 96 well plate format using ultra low attachment plates. For each test cells were prepared as described above, and assay plates were prepared as follows: each test well contained a layer of semi-solid medium with tumor cells (50 μl), and a second layer of medium supernatant with or without test compounds (100 μl). The cell layer consisted of 5·10^3 to 7.5·10^3 tumor cells per well, which were seeded in 50 μl/well cell culture medium (IMDM, supplemented with 20% (v/v) fetal calf serum, 0.01% (w/v) gentamicin, and 0.4% (w/v) agar). After 24 h, the soft-agar layer was covered with 90 μl of the same culture medium without agar, and compounds were added after serial dilution in DMSO and transfer in cell culture medium and left on the cells for the duration of the experiment (continuous exposure, 100 μL total drug overlay). Every plate included six untreated control wells and drug-treated groups. Cultures were incubated at 37° C. and 7.5% CO2 in a humidified atmosphere for 8 to 13 days and monitored closely for colony growth using an inverted microscope. Within this period, ex vivo tumor growth led to the formation of colonies with a diameter of >50 μm. At the time of maximum colony formation, counts were performed with an automatic image analysis system (CellInsight NXT, Thermo Scientific). 48 hours prior to evaluation, vital colonies were stained with a sterile aqueous solution of 2-(4-iodophenyl)-3-(4-nitrophenyl)-5-phenyltetrazolium chloride (1 mg/ml, 100 μl/well).

BXF T24 [10] = experiment: as above; assay type: cell-based, human; settings: BXF T24, monotherapy controls of the 5x5 combination matrix, read-out: IC50, colony formation, single agent
Experimental: as §5, §6, §7, §8

N.N.[Cl][Pt][Cl] [Cisplatin, cisplatin]
IC50 (5637; 2D assay, BXF 5637, 96 h treatment): 9.71 µM | IC50 (BXF 1036 [1]): 9.53 µM | IC50 (BXF 1218 [2]): 7.08 µM | IC50 (BXF 1352 [3]): 17.1 µM | IC50 (T24; BXF T24, 96 h treatment): 4.15 µM | IC50 ([4]; all cell lines tested, read-out: geometric mean absolute IC50 value): 8.57 µM | IC50 (BXF 1036 [5]): 3.97 µM | activity relative to mean IC50 (above average = individual IC50 value < 1/2 mean IC50) (BXF 1036 [5]; BXF 1036, based on relative IC50 values): above average activity | IC50 (BXF 1218 [6]): 5.36 µM | IC50 (BXF 1352 [7]): 8.65 µM | IC50 (BXF 5637): 10.1 µM | IC50 (BXF T24 [8]): 52 µM | IC50 ([9]; read-out: mean absolute IC50 value): 9.93 µM | IC50 ([9]; read-out: mean relative IC50 value): 9.71 µM | IC50, Geo. Mean [9]: 9.93 µM | Bottom plateaus of the concentration-effect curves ([9]; responding tumor models): < 10% | IC50 (BXF 1218L): 6.8 µM | IC50 (BXF 1036L): 6.09 µM | IC50 (BXF T24 [10]): 77.4 µM

COc1ccc(-c2ccc3cc(C(=O)O)ccc3c2)cc1C12CC3CC(CC(C3)C1)C2 [Adapalene]
IC50 (5637; Homo sapiens, 2D assay, 5637, 96 h treatment): 5.42 µM | IC50 (BXF 1036 [1]; Homo sapiens): 9.91 µM | IC50 (BXF 1218 [2]; Homo sapiens): 6 µM | IC50 (BXF 1352 [3]; Homo sapiens): 14 µM | IC50 (T24; Homo sapiens, T-24, T24, 96 h treatment): 3.33 µM | IC50 ([4]; Homo sapiens, geometric mean of five cell lines, read-out: IC50, Geo. Mean): 6.84 µM | difference between the most sensitive and most resistant cell line ([4]; IC50 of T24 vs BXF 1352): 4 fold | IC50 (BXF 1036 [5]; Homo sapiens): 9.72 µM | activity relative to mean IC50 (above average = individual IC50 value < 1/2 mean IC50) (BXF 1218 [6]; BXF 1218): above average activity | IC50 (BXF 1218 [6]; Homo sapiens): 4.76 µM | IC50 (BXF 1352 [7]; Homo sapiens): 12.8 µM | IC50 (BXF 5637; Homo sapiens): 9.11 µM | activity relative to mean IC50 (above average = individual IC50 value < 1/2 mean IC50) (BXF T24 [8]; BXF T-24): above average activity | IC50 (BXF T24 [8]; Homo sapiens): ≥ 100 µM | IC50 ([9]; Homo sapiens, read-out: mean absolute IC50 value): 14 µM | IC50 ([9]; Homo sapiens, read-out: mean relative IC50 value): 7.37 µM | IC50, Geo. Mean [9]: 14.01 µM | IC50 (BXF 1036L; Homo sapiens): 10.8 µM | IC50 (BXF T24 [10]; Homo sapiens): 3.44 µM
